Experimental data taken from a melting point compilation (Tetko et al.; mined from patent text by program, amines drawn as free bases though some values may be those of a salt).

Compound	melting point
CC(C)NCC(O)c1cc(CO)cc(OCc2ccccc2)c1 (stereo not given)	84 to 89 °C
COc1ccc(C=C2OC(=O)c3ccccc32)cc1[N+](=O)[O-]	173 to 181 °C
CCOC(=O)C(=O)Nc1ccc2c(=O)n3c(nc2c1)C(=Cc1ccc(OC)cc1OC)CC3	285 to 288 °C
CC(=O)Nc1ccc(S(=O)(=O)Nc2nc(=O)n(C3CC3)cc2C)cc1	176 to 181 °C
COCc1cc(O)cc2cc(-c3ccc(O)cc3)oc12	186 to 188 °C
CC(CSC(=O)c1ccco1)C(=O)N1CCCC1C(=O)O (mixture of isomers)	132 to 140 °C
CCCOC(=O)N=P(c1ccccc1)(c1ccccc1)c1ccccc1	90 to 91 °C
N#Cc1ccc(-c2ccc(O)c(C=O)c2)cc1	144 °C
COC(=O)c1c(C)nc2cc(OC)c(OC)cc2c1-c1ccnc(Cl)c1	145 to 147 °C
CCn1c2ccccc2c2cc(I)ccc21	78 to 80 °C
CCN(CCCCN)c1ccc2c(=O)[nH][nH]c(=O)c2c1	255 to 257 °C
CC(C)(C)c1ccc(C(=O)Nc2cn3cc(Cl)ccc3n2)cc1	250 to 251 °C
CCN(C(=O)N1CCN(c2cc(OC)cc(OC)c2)CC1)c1nc2ccccc2nc1OC	129 to 130 °C
CCCCC1(CC(=O)N(CC)CC)C(=O)N(c2ccccc2)N(c2ccccc2)C1=O	80.5 to 82 °C
CCOC(=O)c1ncn2c3cccc(I)c3c(=O)n(C)c12	266 to 267 °C
O=C(NCCc1ccc([N+](=O)[O-])cc1)Nc1ccc(Nc2ccccc2)cc1	204 to 205 °C
Cc1nc2cnccc2o1	56 to 58 °C
O=[N+]([O-])c1cc(OCc2ccccc2)c2ccccc2c1CCO	82 to 90 °C
Cn1ncc2nn(-c3cccc(C(F)(F)F)c3)c(=O)cc21	160 to 163 °C
CCOC(=O)c1ccc(CC(C)NCC(O)c2ccc(O)c(CO)c2)cc1 (stereo not given)	92 to 96 °C
Fc1ccc(C=Nc2ccccc2)cc1	39 to 40 °C
CON=CCN1C(=O)C(NC(=O)c2cc3ccccc3[nH]2)N=C(c2ccccc2)c2ccccc21 (racemic)	169 to 174 °C
Cc1cc(Nc2cncc(Nc3cccc(C#N)c3)n2)n[nH]1	260 to 262 °C
COc1ccc(-c2cc(-c3ccccc3)nc(C)c2C(=O)Cl)cc1OC	140 °C
CCCCCCOc1ccc(-c2ncc(Br)cn2)cn1	103 to 106 °C

Compound	melting point
CC(C)c1nc2ccc(C=O)cc2nc1C(C)C	53 to 55 °C
CC(C)(C)OC(=O)NCc1cc(-c2cccnc2)n[nH]1	185 to 187 °C
COc1cc(C)c(NS(=O)(=O)N(C)C)cc1C(=O)NCC1CCCO1 (stereo not given)	130 to 131 °C
COCCOC(=O)Nc1cccc(C)c1CCl	100 to 102 °C
O=[N+]([O-])c1ccc2c(c1)OC(C1(CCCCCl)OCCO1)CO2 (stereo not given)	74 to 76 °C
COC(=O)C[C@H](Cc1ccc(-c2ccccc2)cc1)NC(=O)OC(C)(C)C	86 to 87 °C
COc1cc2c(cc1-c1ccccc1F)NC(=O)CC(c1cc(C#N)ccc1F)=N2	> 250 °C
CCOC(=O)C=Cc1cnc(N(Cc2ccc(OC)c(OC)c2)C(=O)OC(C)(C)C)n2nc(-c3ccco3)nc12	124 to 129 °C
CS(=O)c1ccc(C2=CC(=O)C(C)(C)O2)cc1 (stereo not given)	108 to 109 °C
COc1ccc(N2N=C3c4cc(C)sc4CCCC3CC2=O)cc1 (stereo not given)	136 to 138 °C
O=C(c1ccccc1Cl)c1cc(Cl)ccc1C(=O)C(Br)CN1C(=O)c2ccccc2C1=O (stereo not given)	178 to 179 °C
Cn1c(=O)cn[nH]c1=O	173 °C
CN(c1ncccc1[N+](=O)[O-])C1CCNCC1	116 to 117 °C
CCCCc1nc(SCCF)c(C(=O)O)n1Cc1ccc(-c2ccccc2C(=O)O)cc1	185 to 186 °C
COc1ccc(C(=O)OC2C=C(C)C(=O)CC(C)(C)C2O)cc1 (stereo not given)	108 to 110 °C
Fc1ccc([C@H]2CC[C@H](N3CCN(Cc4ccccc4)CC3)CC2)cc1	106 °C
CCCNCC(=O)N1c2ccccc2N2CCc3cccc(c32)C1C (stereo not given)	113 to 118 °C
CC(C)C(C(=O)O)c1ccc2ccccc2c1 (stereo not given)	129 to 130 °C
COCCNc1nc2c(N)nc3ccccc3c2n1CC(C)(C)O	176 to 178 °C
C=C(CCCCCCCCCCCCCCCC)CC(CO)COCCCCCCCCCCCCCCCC (stereo not given)	37 to 38 °C
C=Cc1cc(C)cc(C)c1CC(=O)N(C)C1(C(=O)OC)CCN(OC)CC1	160 to 162 °C
COc1ccc2cc(Br)ccc2c1[N+](=O)[O-]	151 to 152 °C
CCN1C(=O)C(C)(C)c2ccc(C(=O)Nc3ccccc3)cc21	227 to 230 °C
Cc1cccc2cc3c(=O)[nH]cc(C(=O)O)c3nc12	> 300 °C
COC(=O)Nc1nc2ccc(Sc3ccccc3)cn2c1C(=O)C(F)(F)F	171 to 173 °C
